Experimental findings from patent US20250065017A1, “Fractionating Extracellular Matrix to Modulate Bioactivity and the Host Response” (University of Pittsburgh - Of the Commonwealth System of …, priority 2014, published 2025) are described below.

For one assay, the system named is Sprague Dawley rats. The experiment in a line: Rat skeletal muscle injury model: collagen deposition and myogenesis. The format is in vivo. The settings on record: UBM implant. As for the experimental part: An established rodent skeletal muscle injury model was used to evaluate the effect of the COX1/2 inhibitor, Aspirin, on the ECM scaffold mediated constructive remodeling response. Briefly, three days prior to the surgical procedure, animals were randomly assigned to either the Aspirin treated (3 mg/mL Aspirin in drinking water) or control (vehicle) group. Bilateral 1.5 cm×1.5 cm partial thickness defects were created in the abdominal musculature. A size-matched pre-cast UBM hydrogel and an overlying 2×2 cm single layer sheet of UBM was then placed in the muscle defect area. The remodeling response was evaluated following 3, 7, 14, and 35 days by quantitative histomorphologic metrics (Wolf M T, Carruthers […], Crapo P M, Huber A, Burnsed O A, Londono R, Johnson […] and others. Polypropylene surgical mesh coated with extracellular matrix mitigates the host foreign body response. J Biomed Mater Res A 2013 and Wolf […], Brennan-Pierce E P, Johnson S A, Carruthers […] hydrogel derived from decellularized dermal extracellular matrix. Biomaterials 2012;33(29):7028-38), including characterization of macrophage phenotype and neo tissue deposition. Thirty-two female Sprague Dawley rats (350-400 g at implantation) were purchased from Harlan Laboratories. […] Salicylates in whole blood were determined using the Salicylates Detection Kit from Neogen according to the manufacturer's instructions. […] Fast and Slow Myosin Heavy Chain: Myosin heavy chain positive cells in the defect area were determined by immunolabeling for fast and slow myosin heavy chain as previously described (Turner N J, Yates A J, Jr., Weber […], Stolz D B, Gilbert […]. Xenogeneic extracellular matrix as an inductive scaffold for regeneration of a functioning musculotendinous junction. Tissue Eng Part A 2010;16(11):3309-17; Valentin J E, Turner N J, Gilbert […]. Functional skeletal muscle formation with a biologic scaffold. Biomaterials 2010;31(29):7475-84; and Wolf […]. Biologic scaffold composed of skeletal muscle extracellular matrix. […]

A further assay concerns brain derived microglia. The experiment in a line: PGE2 secretion in primary microglia. The assay is classed as cell-based, rat. The note with it: UBM hydrogel 0.5 mg/mL 48 hours; inhibitor pre-treatment 1 hour. As for the experimental part:
Primary microglia from rats were obtained from postnatal day 3 rat pup brains as previously described ([…], Xiao X, Hart RP, Schwartz M. Protective autoimmunity: interferon-gamma enables microglia to remove glutamate without evoking inflammatory mediators. J Neurochem 2005;92(5):997-1009). Whole brains from postnatal day 3 Sprague Dawley rat pups (Charles River) were harvested and minced after removal of the brain stem, olfactory bulbs, and meninges. Tissue was digested for 15 min in 0.25% trypsin/EDTA at 37° C. […] The suspension was centrifuged, diluted in culture media (DMEM/F12, 10% FBS, 2 mM L-glutamine, 1% penicillin/streptomycin), and grown to confluence at 37° C./5% CO2. Culture media was replaced every 2-3 days. At day 11-12 in vitro, enriched microglia were obtained by mechanical agitation (orbital shaker, 150 rpm, 37 C) for 2 hours. The media was collected after the shake-off step and centrifuged (1400 rpm for 5 minutes). The cell pellet was resuspended in culture media (RPMI 1640, 10% FBS, 1 mM L-glutamine, 1 mM sodium pyruvate, 50 μM beta-mercaptoethanol, 1% penicillin and streptomycin) and cells were plated at a density of 500,000/mL. […] Secreted factor concentrations in the culture supernatants were determined using commercially available ELISA kits (PGE2, PGF2α, ENZO Life Sciences) and IL-1RA (R&D Systems)) according to the manufacturer's instructions.

Molecules are shown by their SMILES.

`CC(=O)Oc1ccccc1C(=O)O` [Aspirin]: in the assay on Sprague Dawley rats (35 day time point, 3 mg/mL Aspirin in drinking water), the “reduction in collagen deposition” value is reported as 24%. The “reduction in myogenesis (myogenic index) compared to non-treated controls” value in the assay on Sprague Dawley rats (35 days post implantation) amounted to 4 fold. Further, the “in vivo reduction in myogenesis” value with Sprague Dawley rats stood at 79%. Besides, in the assay on brain derived microglia, the PGE2 production entry is given as “reduced PGE2 production to baseline levels”.
